The CC50 is the concentration that lowers cell viability or growth by half. A higher CC50 goes with better tolerance by the cells. A word on the IC50: it is the concentration needed to halve the response being measured. Lower therefore signals greater potency in that assay.

Consider 1 compound from patent EP4775219A1, “USE OF VIRUS 3C PROTEASE IN PREVENTION OR TREATMENT OF TUMOR” (Academy of Military Medical Sciences, priority 2023, dated 2025).

Data set [1] can be described thus: in vitro. The class given is cell-based. The following applies: human. How it is done:
(§1) Data analysis: The inhibition rate-concentration curve was fitted to a sigmoidal curve using Origin9.0 software to calculate the half-maximal effective concentration (EC50) of AG7088 against 3C-mRNA. The half-cytotoxic concentration (CC50) of the compound was calculated using the same method.

Data set [2] concerns the target 3C protein in U87 MG cells (Enterovirus A71, UniProt B9VUU3). In kind it is cell-based, EV71 or Coxsackievirus A14. The procedure: (§2) Rupintrivir (AG7088) is an effective, selective and irreversible 3C protease inhibitor. U87 MG cells and A172 cells were seeded in white-walled clear-bottom 96-well plates at a density of 1.0×10^4 per well, and cultured at 37°C with 5% CO2 for 24 hours. Subsequently, EV-3C-mRNA was diluted with Opti-MEM to final concentrations of 998.4 ng/ml, 499.2 ng/ml, 249.6 ng/ml, 124.8 ng/ml, 62.4 ng/ml, 31.2 ng/ml, and 15.6 ng/ml, and transfected into cells with Lipo2000 liposomes. Compound AG7088 was serially diluted with 2% cell maintenance medium and then added to the 96-well plates to final concentrations of 10µM, 1µM and 0µM, respectively. After 48h, the supernatant was discarded, and the diluted Cell-Titer Glo® Luminescent Cell Viability assay solution was added. The mixture was shaken for 5min in the dark to lyse the cells, followed by standing for 3min. Finally, the luminescence value of each well was measured using a microplate reader. Cell viability (%) = average value of experimental group/average value of cell control group × 100 [formula]
as §1

Data set [3] addresses 3C protein in A172 cells (Enterovirus A71, UniProt B9VUU3). Description: AG7088 blocking the inhibition of cell viability by EV-3C-mRNA. The class given is cell-based, EV71 or Coxsackievirus A14. As to conditions: inhibition of the decrease in cell viability caused by 3C-mRNA transfection. The procedure:
as §2, §1

A short description of data set [4]: in vitro. In kind it is cell-based. As to conditions: human. The procedure: as §1
This is another data set of the same source.

Chain of 3C protein in U87 MG cells (B9VUU3 1549-1731, change not shown): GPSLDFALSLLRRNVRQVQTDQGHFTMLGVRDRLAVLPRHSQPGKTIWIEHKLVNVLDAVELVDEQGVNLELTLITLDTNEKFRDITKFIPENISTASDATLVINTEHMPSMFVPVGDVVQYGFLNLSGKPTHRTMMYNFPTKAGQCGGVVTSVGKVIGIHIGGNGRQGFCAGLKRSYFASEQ
Chain of 3C protein in A172 cells (B9VUU3 1549-1731, change not shown): as above

`CCOC(=O)/C=C/[C@H](C[C@@H]1CCNC1=O)NC(=O)[C@@H](CC(=O)[C@@H](NC(=O)c1cc(C)on1)C(C)C)Cc1ccc(F)cc1` [AG7088, Rupintrivir]: the CC50 in data set [1] and in data set [4] was over 100000 nM throughout. The “Viability of U87 cells (%)” value in data set [2] (AG7088 1µM + EV-3C-mRNA 31.2 ng/ml, 48h) is on record as 95.64±2%. The IC50 in data set [2] (inhibition of the decrease in cell viability caused by 3C-mRNA transfection, U87 MG cells) came to 1150 ± 190 nM; in data set [3], 439 ± 30 nM.
